Experimental data published in EP0378255B1, “2-Aminopyrimidinone derivatives” (JANSSEN PHARMACEUTICA N.V., priority 1989, dated 1990).
Like-named read-outs stand apart in the source and are kept apart here.

How the values were obtained:
Type in all cases: in vivo
Tryptamine = assay: Combined Apomorphine, Tryptamine and Norepinephrine (ATN) test in rats: tryptamine part; conditions: Rattus norvegicus
Apomorphine = assay: Combined Apomorphine, Tryptamine and Norepinephrine (ATN) test in rats: apomorphine part; conditions: Rattus norvegicus; read-out: Combined ATN test in rats ED₅₀ values (APO)
Norepinephrine = assay: Combined Apomorphine, Tryptamine and Norepinephrine (ATN) test in rats: norepinephrine part; conditions: Rattus norvegicus; read-out: Combined ATN test in rats ED₅₀ values (NOR)
Method: (§1) Int. Pharmacodyn. Ther., 227, 238-253, 1977. Further the activity of the subject compounds as serotonin antagonists is evidenced by the experimental data obtained in the "Gastric Lesions induced by compound 48/80 in rats" test, described in U.S.-4,335,127. […] All tests were carried out following the procedures described in the cited references and the experimental data are shown in Table 8.

compound 48/80 [1] = assay: Gastric Lesions induced by compound 48/80 in rats (serotonin antagonism); conditions: Rattus norvegicus, read-out: Compound 48/80 tests ED₅₀ values Gastric lesions
Method: as §1

Wistar rats = assay: Sleep-wakefulness patterns in the rat (polygraphic EEG/EOG/EMG recording); conditions: for MEAN DURATION OF EPISODES PS / MEAN DURATION OF EPISODES SWS1 / MEAN DURATION OF EPISODES SWS2 / MEAN DURATION OF EPISODES W / NUMBER OF EPISODES PS / NUMBER OF EPISODES SWS1 / NUMBER OF EPISODES SWS2 / NUMBER OF EPISODES W: means ± SEM of 10 rats
Method: Under pentobarbital anesthesia (50 mg/kg i.p.) 10 adult male Wistar rats weighing 240 to 260 g were chronically implanted for standard polygraphic recording of electroencephalogram (EEG), electro-oculogram (EOG) and electromyogram (EMG). After a 8-10 day recovery period from surgery and habituation to the recording conditions ( 12 h light-dark schedule, light on at 9:00 am.), pharmacological tests were started. The animals received 0.04, 0.16 or 0.63 mg/kg of compound 39 dissolved in 1 mM tartaric acid and injected i.p. at the onset of the light period. A minimum of 3 recovery days was allowed between two treatments. Polygraphic recordings were scored visually and classified as being either wakefulness (W), light slow wave sleep (SWS1), deep slow wave sleep (SWS2) or paradoxical sleep (PS). Sleep-wakefulness parameters were analyzed for each of the two successive 4 h periods following the treatment and compared to baseline (vehicle injection under the same conditions). The amounts of sleep and wakefulness states were expressed as percentage of baseline recordings which represented means of two baseline values per animal. Statistical tests were performed by means of the two-tailed Student t-test.

compound 48/80 [2] = assay: Protection of Rats from compound 48/80 induced lethality (antihistaminic activity); conditions: Rattus norvegicus, read-out: Compound 48/80 tests ED₅₀ values Lethality
Method: as §1

[3] = convulsions, read-out: Combined ATN test in rats ED₅₀ values (TRY) convulsions
[4] = hyperaemia, read-out: Combined ATN test in rats ED₅₀ values (TRY) hyperaemia
[5] = 0-4h after treatment, 0.04 mg/kg i.p.
[6] = 0-4h after treatment, 0.16 mg/kg i.p.
[7] = 0-4h after treatment, 0.63 mg/kg i.p.
[8] = 4-8h after treatment, 0.04 mg/kg i.p.
[9] = 4-8h after treatment, 0.16 mg/kg i.p.
[10] = 4-8h after treatment, 0.63 mg/kg i.p.

## Cc1nc(NCc2ccccn2)n(C)c(=O)c1CCN1CCC(c2noc3cc(F)ccc23)CC1 [Compound 19]
Tryptamine; [3]
  ED50: 0.31 mg/kg
Tryptamine; [4]
  ED50: 0.0025 mg/kg
Apomorphine
  ED50: 0.08 mg/kg
Norepinephrine
  ED50: 0.08 mg/kg
Compound 48/80 [1]
  ED50: 0.04 mg/kg

## CC(=O)Nc1nc(C)c(CCN2CCC(C(=O)c3ccc(F)cc3)CC2)c(=O)n1C [Compound 34]
Tryptamine; [3]
  ED50: 0.31 mg/kg
Tryptamine; [4]
  ED50: 0.005 mg/kg
Apomorphine
  ED50: 0.31 mg/kg
Norepinephrine
  ED50: 1.25 mg/kg
Compound 48/80 [1]
  ED50: 0.04 mg/kg

## CNc1nc(C)c(CCN2CCC(=C(c3ccc(F)cc3)c3ccc(F)cc3)CC2)c(=O)n1C [Compound 39, 5-[2-[4-[bis(4-fluorophenyl)methylene]-1-piperidinyl]ethyl]-3,6-dimethyl-2-(methylamino)-4(3H)-pyrimidinone]
Wistar rats; [5]
  MEAN DURATION OF EPISODES PS: 2.1 ± 0.2 min
  MEAN DURATION OF EPISODES SWS1: 0.8 ± 0.0 min
  MEAN DURATION OF EPISODES SWS2: 4.7 ± 0.5 min
  MEAN DURATION OF EPISODES W: 2.6 ± 0.3 min
  NUMBER OF EPISODES PS: 4±1
  NUMBER OF EPISODES SWS1: 33±3
  NUMBER OF EPISODES SWS2: 32±3
  NUMBER OF EPISODES W: 26±3
Wistar rats; [6]
  MEAN DURATION OF EPISODES PS: 2.0 ± 0.3 min
  MEAN DURATION OF EPISODES SWS1: 0.9 ± 0.0 min
  MEAN DURATION OF EPISODES SWS2: 5.8 ± 0.5 min
  MEAN DURATION OF EPISODES W: 2.9 ± 0.3 min
  NUMBER OF EPISODES PS: 3±1
  NUMBER OF EPISODES SWS1: 28±2
  NUMBER OF EPISODES SWS2: 27±2
  NUMBER OF EPISODES W: 23±1
Wistar rats; [7]
  MEAN DURATION OF EPISODES PS: 2.2 ± 0.4 min
  MEAN DURATION OF EPISODES SWS1: 0.8 ± 0.0 min
  MEAN DURATION OF EPISODES SWS2: 5.9 ± 0.4 min
  MEAN DURATION OF EPISODES W: 2.7 ± 0.2 min
  NUMBER OF EPISODES PS: 3±1
  NUMBER OF EPISODES SWS1: 26±2
  NUMBER OF EPISODES SWS2: 27±2
  NUMBER OF EPISODES W: 22±1
Wistar rats; 0.04, 0.16 or 0.63 mg/kg i.p., two-tailed Student t-test
  doses giving significant effects: Significant effects were observed from the lowest dose upwards
Wistar rats; 0.04 to 0.63 mg/kg i.p.
  dose-related response: a clear dose-related response was obtained
Wistar rats; 0.04 to 0.63 mg/kg i.p. at the onset of the light period, 8 h recording period
  sleep-wakefulness changes (SWS2, W, SWS1, PS): dose-dependent increase of SWS2 combined with a dose-related deficit in W, SWS1 and PS
Wistar rats; 0.04 to 0.63 mg/kg i.p., summary of Table 7
  SWS2 episodes: duration and number: marked prolongation of SWS2 episodes, whereas the number of episodes was reduced
Wistar rats; [8]
  MEAN DURATION OF EPISODES PS: 1.9 ± 0.1 min
  MEAN DURATION OF EPISODES SWS1: 0.7 ± 0.0 min
  MEAN DURATION OF EPISODES SWS2: 3.5 ± 0.2 min
  MEAN DURATION OF EPISODES W: 2.0 ± 0.2 min
  NUMBER OF EPISODES PS: 13±1
  NUMBER OF EPISODES SWS1: 35±3
  NUMBER OF EPISODES SWS2: 41±3
  NUMBER OF EPISODES W: 26±2
Wistar rats; [9]
  MEAN DURATION OF EPISODES PS: 2.1 ± 0.1 min
  MEAN DURATION OF EPISODES SWS1: 0.7 ± 0.0 min
  MEAN DURATION OF EPISODES SWS2: 3.9 ± 0.3 min
  MEAN DURATION OF EPISODES W: 2.0 ± 0.3 min
  NUMBER OF EPISODES PS: 12±1
  NUMBER OF EPISODES SWS1: 35±2
  NUMBER OF EPISODES SWS2: 39±2
  NUMBER OF EPISODES W: 23±2
Wistar rats; [10]
  MEAN DURATION OF EPISODES PS: 2.1 ± 0.1 min
  MEAN DURATION OF EPISODES SWS1: 0.7 ± 0.0 min
  MEAN DURATION OF EPISODES SWS2: 3.7 ± 0.2 min
  MEAN DURATION OF EPISODES W: 1.9 ± 0.2 min
  NUMBER OF EPISODES PS: 12±1
  NUMBER OF EPISODES SWS1: 34±2
  NUMBER OF EPISODES SWS2: 40±2
  NUMBER OF EPISODES W: 26±2
Wistar rats; comparison with ritanserin
  effective dose, lower than that of ritanserin by: 10 fold
Wistar rats; doses of 0.04 and 0.16 mg/kg i.p.
  sleep-wakefulness response: significant sleep-wakefulness response

## CCNc1nc(C)c(CCN2CCN(c3noc4ccccc34)CC2)c(=O)n1C [Compound 69]
Compound 48/80 [2]
  ED50: 0.02 mg/kg
Tryptamine; [3]
  ED50: 0.31 mg/kg
Tryptamine; [4]
  ED50: 0.00125 mg/kg
Apomorphine
  ED50: 0.08 mg/kg
Norepinephrine
  ED50: 0.31 mg/kg
Compound 48/80 [1]
  ED50: 0.00125 mg/kg

## CCCNc1nc(C)c(CCN2CCN(c3nsc4ccccc34)CC2)c(=O)n1C [Compound 71]
Compound 48/80 [2]
  ED50: 0.16 mg/kg
Tryptamine; [3]
  ED50: 0.08 mg/kg
Tryptamine; [4]
  ED50: 0.005 mg/kg
Apomorphine
  ED50: 0.08 mg/kg
Norepinephrine
  ED50: 1.25 mg/kg
Compound 48/80 [1]
  ED50: 0.63 mg/kg

## Cc1nc2n(C)ccn2c(=O)c1CCN1CCC(c2noc3cc(F)ccc23)CC1 [Compound 77]
Compound 48/80 [2]
  ED50: 0.005 mg/kg
Tryptamine; [3]
  ED50: 0.04 mg/kg
Tryptamine; [4]
  ED50: ≤ 0.00063 mg/kg
Apomorphine
  ED50: 0.04 mg/kg
Norepinephrine
  ED50: 0.16 mg/kg
Compound 48/80 [1]
  ED50: 0.04 mg/kg

## Cc1nc2n(c(=O)c1CCN1CCC(c3noc4cc(F)ccc34)CC1)CCN2C [Compound 80]
Compound 48/80 [2]
  ED50: 0.005 mg/kg
Tryptamine; [3]
  ED50: 0.08 mg/kg
Tryptamine; [4]
  ED50: 0.00125 mg/kg
Apomorphine
  ED50: 0.08 mg/kg
Norepinephrine
  ED50: 0.31 mg/kg
Compound 48/80 [1]
  ED50: 0.04 mg/kg

## CC1=NN(C)c2nc(C)c(CCN3CCC(c4noc5cc(F)ccc45)CC3)c(=O)n2C1 [Compound 86]
Tryptamine; [3]
  ED50: 0.04 mg/kg
Tryptamine; [4]
  ED50: 0.00125 mg/kg
Apomorphine
  ED50: 0.04 mg/kg
Norepinephrine
  ED50: 0.08 mg/kg
Compound 48/80 [1]
  ED50: 0.02 mg/kg

## Cc1nc2n(C)nc(C)n2c(=O)c1CCN1CCC(c2noc3cc(F)ccc23)CC1 [Compound 88]
Tryptamine; [3]
  ED50: 0.08 mg/kg
Tryptamine; [4]
  ED50: 0.00125 mg/kg
Apomorphine
  ED50: 0.08 mg/kg
Norepinephrine
  ED50: 0.16 mg/kg
Compound 48/80 [1]
  ED50: 0.04 mg/kg
